Tested on: mouse medulloblastoma (Patched 1(+/-), p53(-/-)) subcutaneously transplanted into nude mouse
Assay: In vivo anti-tumor test, mouse medulloblastoma allogeneic transplantation model
Conditions: 1 mg/kg, orally twice a day for 2 weeks, 0.5% methylcellulose suspension; nude mouse with subcutaneous medulloblastoma; at the end of the test; p < 0.025 (Dunnett's test)
Method: According to the description in Sasaki, K. et al., (2006) Cancer Res. 66: 4215-4222, an anti-tumor effect of a compound was evaluated using a mouse medulloblastoma allogeneic transplantation model. To be precise, Patched 1 gene mutant mouse (lineage name: Ptch1tm1Mps/J) was purchased from The Jackson Laboratory and p53 gene mutant mouse (lineage name: P53N4-M, Nomenclature: B6.129-Trp53tm/BrdN4) was purchased from Taconic, and a mouse of Patched 1(+/−), p53(−/−) phenotype was prepared by mating. […]
An anti-tumor test was performed using a tumor passaged by subcutaneous transplantation. […] The tumor diameter after transplantation was measured and, when the tumor size reached 150-250 mm^3, the anti-tumor test was started using 5 mice per group.
The test compound was prepared to achieve a dose of 1 mg/kg with a 0.5% methylcellulose (Shin-Etsu Chemical Co. Ltd., Cat. No. SM-100) suspension, and orally administered twice a day for 2 weeks. The tumor size was calculated based on the longer diameter and shorter diameter of the tumor measured with an electron vernier caliper. After the start of the test, the tumor size was measured every 2 or 3 days and the growth rate of the tumor size was calculated. […]

Row | SMILES | T/C (%) growth rate of the tumor size [%]
1 | CCc1cc2c(c(OCC(F)(F)F)c(C(=O)NC3CCN(C(=O)CO)CC3)n2C)c(=O)n1-c1ccc(F)cc1 [Example 5, 6-ethyl-5-(4-fluorophenyl)-N-[1-(hydroxyacetyl)piperidin-4-yl]-1-methyl-4-oxo-3-(2,2,2-trifluoroethoxy)-4,5-dihydro-1H-pyrrolo[3,2-c]pyridine-2-carboxamide] | 42
2 | CCc1cc2c(c(OC(C)C)c(C(=O)NC3CCN(C(=O)CO)CC3)n2C)c(=O)n1-c1ccc(F)cc1 [Example 7, 6-ethyl-5-(4-fluorophenyl)-N-[1-(hydroxyacetyl)piperidin-4-yl]-1-methyl-3-(1-methylethoxy)-4-oxo-4,5-dihydro-1H-pyrrolo[3,2-c]pyridine-2-carboxamide] | 40
